{
  "source": "patent US20110045092A1",
  "about": "“CASEIN […] ENCAPSULATING […] ACTIVE AGENTS AND USES THEREOF” (priority 2008, published 2011)",
  "key": {"Zeta potential analysis": {"assay": "Zeta potential analysis", "format": "physicochemical", "conditions": "concentration range studied; PBS pH 7.0", "procedure": "Particle size distribution, mean Gaussian diameter, and zeta potential were determined by a combined dynamic light scattering (DLS) and zeta potential analyzer (NICOMP 380, Particle Sizing Systems (Agilent Technologies, Inc.), Santa Barbara, Calif., USA) at 25° C.\nZeta potential was measured in PBS solutions without NaCl, under a 3 V/cm e-field, using phase analysis mode. The zeta potential was calculated from the electrophoretic mobility (EM) using the Smoluchowski model (which is a reasonable approximation given that the radius of the particles (a) was around 125 nm, and the ionic strength during the EM measurement was calculated to be about 50 mM, i.e. the Debye length (κ^−1) was around 1.4 nm, so that the product κ^−1a=92>>1)."}, "[1]": {"assay": "Visual appearance of drug solution with and without β-CN", "format": "physicochemical", "excerpt": "In order to evaluate the visual appearance of the tested drug when encapsulated within the β-CN system as compared to the non-encapsulated drug solubilized at a similar concentration, in PBS and DMSO (i.e. without the addition of β-CN), photographs were taken of both solutions and their appearance was compared."}, "β-CN [2]": {"target": "T1, β-CN (Bos taurus, UniProt P02666)", "T1 construct": "β-CN from bovine milk (C6905, purity 90%); purchased Sigma-Aldrich Israel Ltd. C6905; host or cells: bovine milk", "T1 sequence (P02666 16-224)": "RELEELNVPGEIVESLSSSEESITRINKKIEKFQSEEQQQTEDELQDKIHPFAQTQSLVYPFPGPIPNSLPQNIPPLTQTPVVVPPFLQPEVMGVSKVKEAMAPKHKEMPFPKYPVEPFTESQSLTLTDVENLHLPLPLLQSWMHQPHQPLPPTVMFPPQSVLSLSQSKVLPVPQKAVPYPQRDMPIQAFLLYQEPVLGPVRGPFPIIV", "assay": "Trp 143 fluorescence quenching of β-CN by drug", "format": "binding, bovine", "conditions": "for Kd: Trp 143 of β-CN quenched by drug, 1 mg/ml β-CN in PBS pH 7.0, emission 332 nm, read-out: Calculated Kd", "procedure": "Tryptophan (Trp) Fluorescence:\nTrp 143 is located in the main hydrophobic domain of β-CN. Quenching of protein fluorescence due to energy transfer from this Trp residue to a bound ligand serves to determine the binding affinity.\nβ-CN-drug interaction was studied by monitoring the changes in the Trp fluorescence emission of β-CN upon addition of the drug. Trp fluorescence was determined using an excitation at 287 nm and emission was detected at 332 nm, with slit widths of 1 nm, using the Fluorolog 3-22 spectrofluoreineter. Intrinsic fluorescence of the Trp residues of β-CN was measured before and after addition of different amounts of each drug ranging between drug: β-CN molar ratio of 0.2:1 to 12:1 at 1 mg/ml β-CN. Changes in Trp fluorescence were used to evaluate the binding of the drug to β-CN. The apparent dissociation constant and the number of drug molecules that are involved in binding of one β-CN molecule were calculated from plots of the fluorescence intensity at 332 nm, expressed as the percentage of the fluorescence of the drug-free β-CN vs. the added drug concentration. The data was analyzed using Matlab (MathWorks), by means of the following equations: […]\nwhere F is the fluorescence intensity at a given added ligand (drug) concentration; F0 the fluorescence intensity at the beginning of the titration; F1 the fluorescence at the end of the titration; [PF] the concentration of the free β-CN; [LF] the concentration of the free ligand, drug; [PL] the concentration of the β-CN-drug complex; Kd and Ka are the dissociation and association constants respectively (Christiaenset al. 2002 European Journal of Biochemistry 269 [12]:2918-2926).\nEmission spectra of pure 1 mg/ml β-CN vs. those of drug encapsulated in 1mg/ml at 4:1 drug: β-CN molar ratio, were collected at Trp excitation wavelength 287 nm, using the Fluorolog 3-22 spectrofluorometer."}, "[3]": {"conditions": "cited from earlier work"}, "β-CN [4]": {"target": "T1, β-CN", "assay": "Mitoxantrone fluorescence quenching by β-CN", "format": "binding, bovine", "conditions": "42 μM mitoxantrone", "procedure": "The β-CN-mitoxantrone interaction was further studied by monitoring the changes in the mitoxantrone fluorescence emission upon addition of β-CN. For this purpose a 3-D fluorescence spectra analysis of mitoxantrone was performed using the Fluorolog 3-22. Mitoxantrone fluorescence emission was measured using 609 nm and 675 nm excitation and emission, respectively, and slit widths of 1 nm. Intrinsic fluorescence of 42 μM mitoxantrone was measured before and after addition of different amounts of β-CN. The β-CN concentration range was 0.1-3.8 mg/ml. The apparent dissociation constant and the number of β-CN molecules bound per mitoxantrone molecule were calculated from plots of the fluorescence intensity at 675 nm expressed as the percentage of the fluorescence of the β-CN-free mitoxantrone vs. the added β-CN concentration. Data were analyzed as detailed herein above for Trp quenching."}, "[5]": {"conditions": "504 μM drug in PBS with 4.55-5.6% DMSO"}},
  "note": "Where a name gives a salt, the structure may show the parent alone.",
  "data": [
    {"compound": "CC(=O)O[C@@]12CO[C@@H]1C[C@H](O)[C@@]1(C)C(=O)[C@H](O)C3=C(C)[C@@H](OC(=O)[C@H](O)[C@@H](NC(=O)OC(C)(C)C)c4ccccc4)C[C@@](O)([C@@H](OC(=O)c4ccccc4)[C@H]21)C3(C)C", "note": "[Docetaxel, Docetaxel trihydrate]", "values": [
      {"measurement": "zeta potential of drug in PBS without β-CN", "setting": "Zeta potential analysis", "value": "around −30 mV"},
      {"measurement": "visual appearance, without β-CN", "setting": "[1]; [5]", "value": "turbid, unstable and aggregated solution"}
    ]},
    {"compound": "CC(=O)O[C@H]1C(=O)[C@@]2(C)[C@H]([C@H](OC(=O)c3ccccc3)[C@]3(O)C[C@H](OC(=O)[C@H](O)[C@@H](NC(=O)c4ccccc4)c4ccccc4)C(C)=C1C3(C)C)[C@]1(OC(C)=O)CO[C@@H]1C[C@@H]2O", "note": "[Paclitaxel, paclitaxel]", "values": [
      {"measurement": "change of β-CN Trp-143 emission upon encapsulation", "setting": "β-CN [2]; 4:1 Paclitaxel:β-CN, 1 mg/ml β-CN, excitation 287 nm", "value": "decrease in emission intensity"},
      {"measurement": "visual appearance, without β-CN", "setting": "[1]; 84 μM drug in PBS and 0.8% DMSO", "value": "turbid, unstable and aggregated system"}
    ]},
    {"compound": "CCc1c2c(nc3ccc(OC(=O)N4CCC(N5CCCCC5)CC4)cc13)-c1cc3c(c(=O)n1C2)COC(=O)[C@]3(O)CC", "note": "[irinotecan, irinotecan hydrochloride trihydrate]", "values": [
      {"measurement": "visual appearance, without β-CN", "setting": "[1]; [5]", "value": "turbid, unstable and aggregated solution"},
      {"measurement": "pKa", "setting": "[3]", "value": 8.1}
    ]},
    {"compound": "O=C1c2c(O)ccc(O)c2C(=O)c2c(NCCNCCO)ccc(NCCNCCO)c21", "note": "[mitoxantrone, Mitoxantrone dihydrochloride]", "values": [
      {"measurement": "Kd", "setting": "β-CN [2]; excitation 287 nm, model fit", "value": 8.43, "unit": "µM"},
      {"measurement": "over-all Trp emission after quenching, of its initial intensity", "setting": "β-CN [2]; plateau at mitoxantrone:β-CN 6:1, 1 mg/ml β-CN", "value": 20, "unit": "%"},
      {"measurement": "over-all mitoxantrone emission quenched by β-CN, up to % of its initial intensity", "setting": "β-CN [4]; plateau at 0.7 mg/ml β-CN", "value": "up to 65%"},
      {"measurement": "Kd", "setting": "β-CN [4]; mitoxantrone fluorescence quenched by β-CN, β-CN 0.1-3.8 mg/ml, excitation 609 nm, emission 675 nm, model fit, read-out: Calculated Kd", "value": 0.726, "unit": "µM"},
      {"measurement": "Log P", "setting": "[3]", "value": "higher than 2"}
    ]},
    {"compound": "vinblastine sulfate salt", "values": [
      {"measurement": "Kd", "setting": "β-CN [2]; excitation 287 nm, model fit", "value": 50.9, "unit": "µM"},
      {"measurement": "n (moles of quencher per moles of fluorophore)", "setting": "β-CN [2]; drug molecules per β-CN molecule, Trp quenching, model fit", "value": "5.25±0.57"},
      {"measurement": "initial overall Trp emission intensity quenched", "setting": "β-CN [2]; vinblastine:β-CN 0.2:1 to 10:1 at 1 mg/ml β-CN", "value": "About 80%"},
      {"measurement": "pKa", "setting": "[3]", "value": 5.5}
    ]}
  ]
}
